Results from patent publication US8129398B2 (priority 2008, dated 2012).

Target: T1, HIV-integrase (Human immunodeficiency virus type 1 group M subtype B, UniProt P12497)
T1 construct: Recombinant integrase (0.26 ng) was incubated with the beads
Assay: HIV-Integrase Inhibition Activity (SPA bead integration assay with P33 labeled target DNA)
Type: biochemical
Settings: recombinant integrase, class symbols; read-out: in vitro activity
In short: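 Strand integration read as bead-proximity CPM after P33 target DNA (0.1 fmol) and inhibitor were added to washed integrase–substrate DNA complexes on SPA beads. Enzyme bound 90 min at 37° C; EDTA (10 mM final) terminated reaction; IC50 graded A/B/C.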

Structure (SMILES)	IC50 [µM]
COCC1(C(=O)NC23CCC(CC2)Cn2c3nc(C(=O)NCc3ccc(F)c(C)c3)c(O)c2=O)CC1 [Example 302, 7,10-Ethanopyrimido[1,2-a]azepine-2-carboxamide, N-[(4-fluoro-3-methylphenyl)methyl]-4,6,7,8,9,10-hexahydro-3-hydroxy-10-[[[1-(methoxymethyl)cyclopropyl]carbonyl]amino]-4-oxo-]	< 0.01
CS(=O)(=O)N1CCN(C(=O)N2CCN(C(=O)C(=O)NC34CCC(CC3)Cn3c4nc(C(=O)NCc4ccc(F)cc4)c(O)c3=O)CC2)C1=O [Example 144, N-(4-Fluorobenzyl)-3-hydroxy-10-(((4-((3-(methylsulfonyl)-2-oxo-1-imidazolidinyl)carbonyl)-1-piperazinyl)(oxo)acetyl)amino)-4-oxo-4,6,7,8,9,10-hexahydro-7,10-ethanopyrimido[1,2-a]azepine-2-carboxamide]	< 0.01
CC(=O)N1CCC1C(=O)NC12CCC(CC1)Cn1c2nc(C(=O)NCc2ccc(F)c(C)c2)c(O)c1=O (stereo in doubt) [Example 275, 7,10-Ethanopyrimido[1,2-a]azepine-2-carboxamide, 10-[[[(2S)-1-acetyl-2-azetidinyl]carbonyl]amino]-N-[(4-fluoro-3-methylphenyl)methyl]-4,6,7,8,9,10-hexahydro-3-hydroxy-4-oxo-]	< 0.01
CN1CCN(C(=O)C(=O)NC23CCC(CC2)Cn2c3nc(C(=O)NCc3ccc(F)cc3)c(O)c2=O)CC1 [Example 71, N-(4-Fluorobenzyl)-3-hydroxy-10-(((4-methyl-1-piperazinyl)(oxo)acetyl)amino)-4-oxo-4,6,7,8,9,10-hexahydro-7,10-ethanopyrimido[1,2-a]azepine-2-carboxamide]	< 0.01
CC(C)S(=O)(=O)N1CCCC1C(=O)NC12CCC(CC1)Cn1c2nc(C(=O)NCc2ccc(F)cc2)c(O)c1=O (centres unmarked) [Example 402]	< 0.01
O=C(NC12CCC(CC1)Cn1c2nc(C(=O)NCc2ccc(F)cc2)c(O)c1=O)C(=O)N1CCC[C@@H]1CO [Example 87, N-(4-Fluorobenzyl)-3-hydroxy-10-((((2R)-2-(hydroxymethyl)-1-pyrrolidinyl)(oxo)acetyl)amino)-4-oxo-4,6,7,8,9,10-hexahydro-7,10-ethanopyrimido[1,2-a]azepine-2-carboxamide]	< 0.01
O=C(NC12CCC(CC1)Cn1c2nc(C(=O)NCc2ccc(F)cc2)c(O)c1=O)C(=O)N1CC(F)(F)C1 [Example 98, 10-(((3,3-Difluoro-1-azetidinyl) (oxo)acetyl)amino)-N-(4-fluorobenzyl)-3-hydroxy-4-oxo-4,6,7,8,9,10-hexahydro-7,10-ethanopyrimido[1,2-a]azepine-2-carboxamide]	< 0.01
O=C(NC12CCC(CC1)Cn1c2nc(C(=O)NCc2ccc(F)cc2)c(O)c1=O)C(=O)N1CCC(F)CC1 [Example 102, N-(4-Fluorobenzyl)-10-(((4-fluoro-1-piperidinyl)(oxo)acetyl)amino)-3-hydroxy-4-oxo-4,6,7,8,9,10-hexahydro-7,10-ethanopyrimido[1,2-a]azepine-2-carboxamide]	< 0.01
CN(C)C(=O)C(=O)NC12CCC(CC1)Cn1c2nc(C(=O)NCCCn2ccnc2)c(O)c1=O [Example 350]	> 0.1
Cc1ccc(C(=O)NC23CCC(CC2)Cn2c3nc(C(=O)NCc3ccc(F)cc3)c(O)c2=O)o1 [Example 237, 7,10-Ethanopyrimido[1,2-a]azepine-2-carboxamide, N-[(4-fluorophenyl)methyl]-4,6,7,8,9,10-hexahydro-3-hydroxy-10-[[(5-methyl-2-furanyl)carbonyl]amino]-4-oxo-]	< 0.01
COc1cccc(CNC(=O)c2nc3n(c(=O)c2O)CC2CCC3(NC(=O)C(=O)N(C)C)CC2)c1OC [Example 381]	< 0.01
Cc1cc(CNC(=O)c2nc3n(c(=O)c2O)CC2CCC3(NC(=O)C(=O)N(C)C)C2)ccc1F (centres unmarked) [Example 196, Ethanediamide, N′-[2-[[[(4-fluoro-3-methylphenyl)methyl]amino]carbonyl]-6,7,8,9-tetrahydro-3-hydroxy-4-oxo-7,10-methanopyrimido[1,2-a]azepin-10(4H)-yl]-N,N-dimethyl-]	< 0.01
CN(C)C(=O)C(=O)NC12CCC(Cn3c1nc(C(=O)NCc1ccc(F)cc1)c(O)c3=O)OC2 (centres unmarked) [Example 222, N′-(2-((4-Fluorobenzyl)carbamoyl)-3-hydroxy-4-oxo-6,7,8,9-tetrahydro-7,10-(epoxymethano)pyrimido[1,2-a]azepin-10(4H)-yl)-N,N-dimethylethanediamide]	< 0.01
CN(C)C(=O)C(=O)NC12CCC(CCn3c1nc(C(=O)NCc1ccc(F)c(F)c1)c(O)c3=O)C2 (centres unmarked) [Example 214, Ethanediamide, N′-[2-[[[(3,4-difluorophenyl)methyl]amino]carbonyl]-7,8,9,10-tetrahydro-3-hydroxy-4-oxo-8,11-methano-4H-pyrimido[1,2-a]azocin-11(6H)-yl]-N,N-dimethyl]	< 0.01
COC1CCN(C(=O)C(=O)NC23CCC(CC2)Cn2c3nc(C(=O)NCc3ccc(F)cc3)c(O)c2=O)C1 (centres unmarked) [Example 90, N-(4-Fluorobenzyl)-3-hydroxy-10-(((3-methoxy-1-pyrrolidinyl)(oxo)acetyl)amino)-4-oxo-4,6,7,8,9,10-hexahydro-7,10-ethanopyrimido[1,2-a]azepine-2-carboxamide]	< 0.01
CN(C)C(=O)C(=O)NC12CCC(CC1)Cn1c2nc(C(=O)NCc2ccc(F)cc2S(C)(=O)=O)c(O)c1=O [Example 117, N′-(2-((4-Fluoro-2-(methylsulfonyl)benzyl)carbamoyl)-3-hydroxy-4-oxo-6,7,8,9-tetrahydro-7,10-ethanopyrimido[1,2-a]azepin-10(4H)-yl)-N,N-dimethylethanediamide]	0.01 to 0.1
Cc1cc(CNC(=O)c2nc3n(c(=O)c2O)CC2CCC3(N(C)C(=O)c3cccnc3)CC2)ccc1F [Example 319, 7,10-Ethanopyrimido[1,2-a]azepine-2-carboxamide, N-[(4-fluoro-3-methylphenyl)methyl]-4,6,7,8,9,10-hexahydro-3-hydroxy-10-[methyl(3-pyridinylcarbonyl)amino]-4-oxo-]	< 0.01
CN(CCF)C(=O)C(=O)NC12CCC(CCn3c1nc(C(=O)NCc1ccc(F)cc1)c(O)c3=O)C2 (centres unmarked) [Example 209, Ethanediamide, N-(2-fluoroethyl)-N′-[2-[[[(4-fluorophenyl)methyl]amino]carbonyl-7,8,9,10-tetrahydro-3-hydroxy-4-oxo-8,11-methano-4H-pyrimido[1,2-a]azocin-1](6H)-yl]-N-methyl]	< 0.01
CC(=O)N1CC[C@H](C(=O)NC23CCC(CC2)Cn2c3nc(C(=O)NCc3ccc(F)c(C)c3)c(O)c2=O)C1 [Example 282, 7,10-Ethanopyrimido[1,2-a]azepine-2-carboxamide, 10-[[[(3S)-1-acetyl-3-pyrrolidinyl]carbonyl]amino]-N-[(4-fluoro-3-methylphenyl)methyl]-4,6,7,8,9,10-hexahydro-3-hydroxy-4-oxo-]	< 0.01
O=C(NCc1ccc(F)cc1)c1nc2n(c(=O)c1O)CC1CCC2(NC(=O)C2CCCN2C(=O)C2CC2)CC1 (centres unmarked) [Example 407]	< 0.01
CN(C)C(=O)C(=O)NC12CCC(CC1)Cn1c2nc(C(=O)NCCc2ccc(F)cc2)c(O)c1=O [Example 358]	0.01 to 0.1
O=C(NC12CCC(Cn3c1nc(C(=O)NCc1ccc(F)c(Cl)c1)c(O)c3=O)C2)OCc1ccccc1 (centres unmarked) [Example 194, Carbamic acid, [2-[[[(3-chloro-4-fluorophenyl)methyl]amino]carbonyl]-6,7,8,9-tetrahydro-3-hydroxy-4-oxo-7,10-methanopyrimido[1,2-a]azepin-10(4H)-yl]-, phenylmethyl ester]	< 0.01
CC(C)CN(C)C(=O)C(=O)NC12CCC(CC1)Cn1c2nc(C(=O)NCc2ccc(F)cc2)c(O)c1=O [Example 99, N′-(2-((4-Fluorobenzyl)carbamoyl)-3-hydroxy-4-oxo-6,7,8,9-tetrahydro-7,10-ethanopyrimido[1,2-a]azepin-10(4H)-yl)-N-methyl-N-(2-methylpropyl)ethanediamide]	< 0.01
CN(C)C(=O)C(=O)NC12CCC(CC1)Cn1c2nc(C(=O)NCc2ccccc2F)c(O)c1=O [Example 367]	< 0.01
O=C(NC12CCC(CC1)Cn1c2nc(C(=O)NCc2ccc(F)cc2)c(O)c1=O)C(=O)N1CCC1 [Example 67, 10-((1-Azetidinyl(oxo)acetyl)amino)-N-(4-fluorobenzyl)-3-hydroxy-4-oxo-4,6,7,8,9,10-hexahydro-7,10-ethanopyrimido[1,2-a]azepine-2-carboxamide]	< 0.01
CN(C)C(=O)C(=O)N(C)C12CCC(CC1)Cn1c2nc(C(=O)NCc2ccc(F)cc2)c(O)c1=O [Example 157, N-(2-((4-Fluorobenzyl)carbamoyl)-3-hydroxy-4-oxo-6,7,8,9-tetrahydro-7,10-ethanopyrimido[1,2-a]azepin-10(4H)-yl)-N,N′,N′-trimethylethanediamide]	< 0.01
C=C[C@H]1C[C@@]1(NC(C)=O)C(=O)NC12CCC(CC1)Cn1c2nc(C(=O)NCc2ccc(F)c(C)c2)c(O)c1=O [Example 300, 7,10-Ethanopyrimido[1,2-a]azepine-2-carboxamide, 10-[[[(1S,2R)-1-(acetylamino)-2-ethenylcyclopropyl]carbonyl]amino]-N-[(4-fluoro-3-methylphenyl)methyl]-4,6,7,8,9,10-hexahydro-3-hydroxy-4-oxo-]	< 0.01
Cc1c(C(=O)NC23CCC(CC2)Cn2c3nc(C(=O)NCc3ccc(F)cc3)c(O)c2=O)ncn1C [Example 242, 7,10-Ethanopyrimido[1,2-a]azepine-2-carboxamide, 10-[[(1,5-dimethyl-1H-imidazol-4-yl)carbonyl]amino]-N-[(4-fluorophenyl)methyl]-4,6,7,8,9,10-hexahydro-3-hydroxy-4-oxo-]	< 0.01
CN(CC(F)(F)F)C(=O)C(=O)NC12CCC(CC1)Cn1c2nc(C(=O)NCc2ccc(F)cc2)c(O)c1=O [Example 50, N′-(2-((4-Fluorobenzyl)carbamoyl)-3-hydroxy-4-oxo-6,7,8,9-tetrahydro-7,10-ethanopyrimido[1,2-a]azepin-10(4H)-yl)-N-methyl-N-(2,2,2-trifluoroethyl)ethanediamide]	< 0.01
